US10335427B2, “Tumor prevention and treatment drug and applications thereof” (priority 2016, dated 2019)

Columns and labels:
[1] = system: Hela cells; experiment: Hela tumor mass growth in nude mice (tumor weight, inhibition rate); assay type: in vivo, Balb/c nude mice; settings: i.v. twice every week, 10 times, 8-oxodGTP 500 μg/kg/time, 5-FU 15 mg/kg/time
Protocol: 5×10^6 Hela cells (200 μl) were inoculated subcutaneously into the armpit of nude mice. After growing to a certain size, the tumor mass was reinoculated subcutaneously into the armpit of 24 nude mice, which were then randomly grouped into the 5-FU positive control group, the blank carrier control group, and the 8-oxodGTP group, and on the second day after the second inoculation, these nude mice were dosed intravenously. The 5-FU group was injected at a dose of 15 mg/kg/time, the 8-oxodGTP group was injected at a dose of 500 μg/kg/time, and the carrier control group was injected at an equal volume of blank carrier reagents. The injections were performed twice every week, for a total of 10 times. After the injections, the tumor mass was taken and weighed, so as to calculate the inhibition rate (inhibition rate=(1-T experimental group/C control group)×100%).

[2] = system: tumor cells; settings: cited from earlier work
[3] = system: melanomas, SW480 colorectal cancer and MCF7 breast cancer; settings: cited from earlier work

O=c1[nH]cc(F)c(=O)[nH]1 [5-FU, 5-fluorouracil]
Tumor weight [1]: 988 ± 436.94 mg | Inhibition rate ([1]; vs blank carrier group): 18%

CNc1cc(-c2cccc(Cl)c2Cl)nc(N)n1 [TH287]
Effect of MTH1 inhibition on tumor cells [2]: selectively kill tumor cells

Nc1nc(NC2CC2)cc(-c2cccc(Cl)c2Cl)n1 [TH588]
Effect in nude mice transplantation experiments [3]: therapeutic effects | Effect of MTH1 inhibition on tumor cells [2]: selectively kill tumor cells
